Measurements reported in patent US11920158B2, “Cardiomyocyte maturation” (The Council of the Queensland Institute of Medical Research, priority 2016, dated 2024).
Where two headings read alike, the source gives them in different places.

What was measured:
[1] = test system: human cardiac organoids (hCOs); test: Force analysis of hCO in Heart-Dyno (pole deflection, contraction parameters); type: cell-based; conditions: for EC50: read-out: calcium EC50 for force of contraction
Method: CTRL medium: α-MEM GlutaMAX (ThermoFisher Scientific), 10% fetal bovine serum (FBS) (ThermoFisher Scientific), 200 μM L-ascorbic acid 2 phosphate sesquimagnesium salt hydrate (Sigma) and 1% Penicillin/Streptomycin (ThermoFisher Scientific). For each hCO, 5×10^4 cardiac cells in CTRL medium were mixed with collagen I to make a 3.5 μl final solution containing 2.6 mg/ml collagen I and 9% Matrigel. The bovine acid-solubilized collagen I (Devro) was first salt balanced and pH neutralized using 10×DMEM and 0.1 M NaOH, respectively, prior to mixing with Matrigel and cells. The mixture was prepared on ice and pipetted into the Heart-Dyno. The Heart-Dyno was then centrifuged at 100×g for 10 s to ensure the hCO form halfway up the posts. The mixture was then gelled at 37° C. for 30 min prior to the addition of CTRL medium to cover the tissues (150 μl/hCO). The Heart-Dyno design facilitates the self-formation of tissues around in-built PDMS exercise poles (designed to deform ˜0.07 μm/μN). The medium was changed every 2-3 days (150 μl/hCO). hCOs were cultured in CTRL medium for formation and then changed to serum-free media as indicated for experiments. For all screening experiments, after hCO formation, hCOs were cultured in serum-free conditions comprising DMEM without glucose, glutamine and phenol red (ThermoFisher Scientific) supplemented with 4% B27 (with or without insulin) (ThermoFisher Scientific), 1% GlutaMAX (ThermoFisher Scientific), 200 μM L-ascorbic acid 2 phosphate sesquimagnesium salt hydrate and 1% Penicillin/Streptomycin (ThermoFisher Scientific). […] A timeline of the finalized hCO fabrication, culture and maturation protocol can be found in FIG. 1m.
The pole deflection was used to approximate the force of contraction. A Leica DMi8 inverted high content Imager was used to capture a 10 s time-lapse of each hCO contracting in real time at 37° C. Custom batch processing files were written in Matlab R2013a (Mathworks) to convert the stacked TIFF files to AVI, track the pole movement (using vision.PointTracker), determine the contractile parameters, produce a force-time figure, and export the batch data to an Excel (Microsoft) spreadsheet.
Custom batch processing files were written in Matlab R2013a (Mathworks) to convert the stacked TIFF files to AVI, track the pole movement (using vision.PointTracker), determine the contractile parameters, produce a force-time figure, and export the batch data to an Excel (Microsoft) spreadsheet. The follow formulae were used to determine the contractile force at each time-point. Maximum deflection at the end of a rectangular cantilever fixed at one end with force applied at a specified distance:
Based on the parameters of our system: E=1500 kPa, b=0.5 mm, h=0.2 mm, L=0.7 mm, and x=0.35 mm (hCO half-way up the poles), k=14 μN/μm.

[2] = test system: human cardiac organoids (hCOs); test: hCO tissue viability (viable, intact and functional tissues); type: cell-based; conditions: prolonged presence within the maturation media
[3] = test system: hPSC-CMs in human cardiac organoids (hCOs); test: Whole-mount immunostaining and image analysis of hCO (Ki-67, pH3, MLC2v, activated β-catenin, 8-OxoG, pATM, α-actinin, DNA); type: cell-based
Method: hCOs were fixed for 60 min with 1% paraformaldehyde (Sigma) at room temperature and washed 3× with PBS, after which they were incubated with primary antibodies (Table 1) in Blocking Buffer, 5% FBS and 0.2% Triton-X-100 (Sigma) in PBS overnight at 4° C. Cells were then washed in Blocking Buffer 2× for 2 h and subsequently incubated with secondary antibodies (Table 1) and Hoescht (1:1000) overnight at 4° C. They were washed in Blocking Buffer 2× for 2 h and imaged in situ or mounted on microscope slides using Fluoromount-G (Southern Biotech). For screening hCO were imaged using a Leica DMi8 high content imaging microscope for in situ imaging. Custom batch processing files were written in Matlab R2013a (Mathworks) to remove the background, calculate the image intensity, and export the batch data to an Excel (Microsoft) spreadsheet. For more detailed images an Olympus IX81 confocal microscope or a Nikon Diskovery Spinning Disk confocal microscope for mounted imaging. For cell cycle analysis experiments 3 random fields of view were imaged and manually quantified for proliferation. These were added together to calculate the percentage of hPSC-CM proliferation in each hCO.

adult cardiac muscle = conditions: ref (23), read-out: calcium EC50; cited from earlier work
[4] = test system: human cardiac organoids (hCOs); test: ELISAs for lactate dehydrogenase and cardiac troponin I (cell viability of hCO); type: cell-based; conditions: addition of palmitate, serum-free culture of hCOs

TGF-β1: TGFβ-1 growth factor (Peprotech)
hCO function (force of contraction) ([1]; 0, 1, 3 and 10 ng/ml, day 2-5, 2-7 and 2-9, H9-derived hCOs): detrimental to hCO function | contractile function ([1]; prolonged presence within the maturation media): compromised the contractile function | cell death [2]: significant cell death

Cc1c[nH]c(-c2cnc(NCCNc3ccc(C#N)cn3)nc2-c2ccc(Cl)cc2Cl)n1 [CHIR99021, reference compound]
proliferating (Ki-67) hPSC-CMs (α-actinin) ([3]; hCOs cultured in MM, 24 h treatment): blunted proliferative response | proliferation (α-actinin and Ki-67 staining) ([3]; hCOs, 5 μm CHIR vs 0.05% DMSO): pro-proliferative effects

insulin: insulin, commonly used in serum-free medium supplements (B27 with insulin)
activated β-catenin ([3]; 48 h, regardless of glucose or palmitate): highly dependent on insulin | re-activation of hPSC-CM proliferation (Ki-67) ([3]; addition of insulin after 11 days in MM): not sufficient to re-activate | hPSC-CM proliferation (Ki-67 expression) ([3]; serum-free conditions, 1 mM glucose and 10 μM palmitate): inducing hPSC-CM proliferation

[Ca+2] [calcium]
EC50 ([1]; hCOs cultured in CTRL medium): 300 µM | EC50 ([1]; hCOs cultured in MM): 1000 µM | EC50 (adult cardiac muscle): 2600 to 6000 µM

COc1cc(N)c(Cl)cc1C(=O)NC1CCN(CCCOc2ccc(F)cc2)CC1OC (centres unmarked) [cisapride, reference compound]
relaxation time ([1]; hCO, pro-arrhythmogenic compound with hERG toxicity): prolong relaxation time

CCCCCCCCCCCCCCCC(=O)O [palmitate, palmitic acid]
hCO force of contraction ([1]; 100 μM palmitate, absence of insulin, 0.5, 1 and 5.5 mM glucose): significantly higher forces | hCO force of contraction ([1]; addition of 10 μM and 100 μM palmitate, serum-free conditions with insulin, vs 0 μM palmitate): trend to increase | MLC2v expression ([3]; addition of palmitate, serum-free with insulin, relative to 5.5 mM glucose without palmitate): increased | MLC2v expression ([3]; palmitate, absence of insulin): trend to increased MLC2v expression | lactate dehydrogenase levels [4]: unaffected

CC(C)NCC(O)c1ccc(O)c(O)c1 (centres unmarked) [isoprenaline, reference compound]
force of contraction ([1]; hCOs cultured in MM, culture medium 1.8 mM Ca2+ (no increase in CTRL medium)): increase in the force of contraction | rate of contraction ([1]; hCOs in both CTRL medium and MM): increased the rate of contraction | 50% contraction time ([1]; paced 1 Hz at the calcium EC50, both CTRL medium and MM hCO): decreased 50% contraction time
